Patent publication US11865176B2, “Compositions and methods of modulating anti-tumor immunity” (Dana-Farber Cancer Institute, Inc., priority 2016, dated 2024)
Where “and” joins values, the source holds several entries; their conditions need not be identical. Equal entries are not always repeated. Structures can show the parent of a compound that is named as a salt.

Test system: PD-1-overexpressing Jurkat cells
Experiment: Small molecule screen: IL2 secretion (AlphaLISA) from stimulated PD-1-overexpressing Jurkat cells
Format: cell-based, human
Conditions: 3.3 μM compound; for Zscore_1 / Zscore_2: IL2 level, α-CD3/α-CD28/α-PD-1 beads; for Zscore_1: replicate 1; for Zscore_2: replicate 2; for Zscore_AVG: average of replicate Z scores
Experimental: PD-1-overexpressing Jurkat cells were plated at a concentration of 100,000 cells/well in a total volume of 80 μl. […] Dynabeads conjugated to α-CD3, α-CD28, and α-PD-1 antibodies were added in 20 for a final assay volume of 100 with a final compound concentration of 3.3 μM and an 8:1 bead:cell ratio. Beads were conjugated to α-CD3/α-CD28/control IgG and added to wells containing DMSO-treated cells as a positive control, while beads conjugated to α-CD3/α-CD28/α-PD1 were added to wells containing DMSO-treated cells as a negative control. Supernatants from each well were analyzed for IL2 levels by AlphaLISA (Perkin Elmers) according to the manufacturer's protocol. Average and standard deviation values were calculated from the PD-1 controls (DMSO-treated cells stimulated with α-CD3/α-CD28/α-PD-1 beads); hits were defined as compounds scoring at least 3 standard deviations from the mean of the controls.
In addition to known negative regulators of IL-2 production (e.g. glycogen synthase kinase-3α/β (GSK3α/β) (24,25)), this screen identified cyclin-dependent kinases 4 and 6 inhibitors (CDK4/6i) as top hits (Table 1).

Fc1ccc(-c2nc3n(c2-c2ccncc2)CCS3)cc1 [SKF-86002]
Zscore_1: −0.4953
Zscore_2: −2.331
Zscore_AVG: −1.413

COc1ccc2nc3n[nH]c(C)c3c(NCCOCCO)c2c1 [Ras/Rac Transformation Blocker, SCH 51344]
Zscore_1: −2.363
Zscore_2: −3.128
Zscore_AVG: −2.746

O=c1cc(N2CCOCC2)nc2c3ccccc3ccn12 [Compound 401]
Zscore_1: 2.829
Zscore_2: 15.49
Zscore_AVG: 9.162

Nc1cccc(-c2cc3c(Oc4cccc(O)c4)ncnc3[nH]2)c1 [GSK-3b Inhibitor XII, TWS119]
Zscore_1: −1.059
Zscore_2: −1.321
Zscore_AVG: −1.19

CN[C@@H]1C[C@H]2O[C@@](C)([C@@H]1OC)n1c3ccccc3c3c4c(c5c6ccccc6n2c5c31)C(=O)NC4 [Staurosporine, Streptomyces sp.]
Zscore_1: −6.893 and −7.431
Zscore_2: −9.439 and −9.651
Zscore_AVG: −8.166 and −8.541

O=C1Nc2ccccc2/C1=C\c1c(Cl)[nH]c2ccccc12 [Cdk1 Inhibitor]
Zscore_1: −0.7783
Zscore_2: −0.6137
Zscore_AVG: −0.696

COc1cc2ncnc(Nc3cccc(Cl)c3)c2cc1OC [AG 1478]
Zscore_1: −1.129
Zscore_2: −1.216
Zscore_AVG: −1.173

O=c1[nH][nH]c2nnc(-c3c(-c4ccccc4)nn4ccccc34)cc12 [ERK Inhibitor II, Negative Control]
Zscore_1: −1.778
Zscore_2: 1.052
Zscore_AVG: −0.3634

N#C/C(=C(/N)Sc1ccccc1N)c1cccc(C(O)c2ccncc2)c1 (stereo not drawn) [MEK Inhibitor I]
Zscore_1: −4.599
Zscore_2: −4.873
Zscore_AVG: −4.736

Cc1ccc([N+](=O)[O-])cc1S(=O)(=O)N(C)/N=C/c1cnc2ccc(Br)cn12.Cl [PI 3-Kα Inhibitor VIII]
Zscore_1: −7.658
Zscore_2: −10.33
Zscore_AVG: −8.993

CC(C)[C@H](CO)Nc1nc(Nc2cc(N)cc(Cl)c2)c2ncn(C(C)C)c2n1 [Aminopurvalanol A]
Zscore_1: −3.687
Zscore_2: −3.638
Zscore_AVG: −3.662

COc1cc2ncnc(Nc3cccc(O)c3)c2cc1OC [WHI-P180, Hydrochloride]
Zscore_1: −4.627
Zscore_2: −4.112
Zscore_AVG: −4.37

COc1ccc2c(c[n+](C)c3c4cc5c(cc4ccc23)OCO5)c1OC [Chelerythrine Chloride]
Zscore_1: 0.1826
Zscore_2: 0.07537
Zscore_AVG: 0.129

CC(C)(C)c1nc2c3cc[nH]c(=O)c3c3cc(F)ccc3c2[nH]1 [JAK Inhibitor I]
Zscore_1: −4.034
Zscore_2: −6.012
Zscore_AVG: −5.023

O=c1c2ccccc2[nH]c(=S)n1CCN1CCC(=C(c2ccc(F)cc2)c2ccc(F)cc2)CC1 [Diacylglycerol Kinase Inhibitor II]
Zscore_1: −0.9879
Zscore_2: 0.3398
Zscore_AVG: −0.324

Nc1ncnc2c1cnn2-c1ccccc1 [PP3]
Zscore_1: 0.2416
Zscore_2: 0.9081
Zscore_AVG: 0.5749

CO[C@H]1C[C@@H]2CC[C@@H](C)[C@@](O)(O2)C(=O)C(=O)N2CCCC[C@H]2C(=O)O[C@H]([C@H](C)C[C@@H]2CC[C@@H](O)[C@H](OC)C2)CC(=O)[C@H](C)/C=C(\C)[C@@H](O)[C@@H](OC)C(=O)[C@H](C)C[C@H](C)/C=C/C=C/C=C/1C [Rapamycin]
Zscore_1: −1.883
Zscore_2: −3.367
Zscore_AVG: −2.625

COC(=O)[C@@]1(O)C[C@H]2O[C@]1(C)n1c3ccccc3c3c4c(c5c6ccccc6n2c5c31)C(=O)NC4 [K-252a, Nocardiopsis sp.]
Zscore_1: −4.42
Zscore_2: −6.58
Zscore_AVG: −5.5

NC(=O)Nc1sc(-c2ccc(F)cc2)cc1C(N)=O [IKK-2 Inhibitor IV]
Zscore_1: −1.558
Zscore_2: −4.19
Zscore_AVG: −2.874

CC(C)(C)c1cc(C=C(C#N)C#N)cc(Br)c1O [AG 1024]
Zscore_1: 0.3395
Zscore_2: 0.506
Zscore_AVG: 0.4228

O=C1NC(=O)c2c1c1c3ccccc3[nH]c1c1[nH]c3cc(Br)ccc3c21 [Cdk4 Inhibitor]
Zscore_1: 7.007
Zscore_2: 16.07
Zscore_AVG: 11.54

O=C1Nc2ccc3ncsc3c2/C1=C/c1cnc[nH]1 [PKR Inhibitor]
Zscore_1: −7.658
Zscore_2: −8.086
Zscore_AVG: −7.872

C[C@@H](N)[C@H]1CC[C@H](C(=O)Nc2ccncc2)CC1 [ROCK Inhibitor, Y-27632]
Zscore_1: −3.269
Zscore_2: −4.375
Zscore_AVG: −3.822

CN1C(=O)C(c2c[nH]c3ccccc23)=C(c2c[nH]c3ccccc23)C1=O [Bisindolylmaleimide V]
Zscore_1: −0.6214
Zscore_2: 1.109
Zscore_AVG: 0.2438

COc1cc2ncnc(Nc3ccc(O)c(Br)c3)c2cc1OC [JAK3 Inhibitor II]
Zscore_1: −0.7783
Zscore_2: −1.36
Zscore_AVG: −1.069

Cn1cc(C2=C(c3cn(CCCSC(=N)N)c4ccccc34)C(=O)NC2=O)c2ccccc21 [Ro-31-8220]
Zscore_1: −5.987
Zscore_2: −6.268
Zscore_AVG: −6.128

O=C(c1ccccc1)c1ccc(N2CCOCC2)cc1O [DNA-PK Inhibitor V]
Zscore_1: −2.22
Zscore_2: −4.112
Zscore_AVG: −3.166

Akt Inhibitor XII, Isozyme- Selective, Akti-2
Zscore_1: 5.536
Zscore_2: 15.29
Zscore_AVG: 10.41

Oc1ccc(-c2nc(-c3ccc(F)cc3)c(-c3ccncc3)[nH]2)cc1 [SB 202190]
Zscore_1: −1.512
Zscore_2: −3.097
Zscore_AVG: −2.304

PI 3-Kγ Inhibitor VII
Zscore_1: −0.08397
Zscore_2: −0.6851
Zscore_AVG: −0.3845

N#CC(c1ccnc(NCCc2cccnc2)n1)c1nc2ccccc2s1 (stereo not drawn) [JNK Inhibitor V]
Zscore_1: −0.3788
Zscore_2: 3.626
Zscore_AVG: 1.623

Staurosporine, N-benzoyl-
Zscore_1: −5.987
Zscore_2: −7.072
Zscore_AVG: −6.529

COc1cc2ncnc(Nc3ccc(OCc4ccccc4)cc3)c2cc1OC [EGFR/ErbB-2 Inhibitor]
Zscore_1: 0.09156
Zscore_2: 4.015
Zscore_AVG: 2.053

O=C1Nc2ccc(Cl)cc2/C1=C/c1cc(Cl)c(O)c(Cl)c1 [PKR Inhibitor, Negative Control]
Zscore_1: −1.427
Zscore_2: −0.4334
Zscore_AVG: −0.9301

CC(=O)O[C@@H]1[C@@H](OC(C)=O)[C@@H](O)[C@H](Oc2c(-c3ccc(O)cc3)oc3cc(O)cc(O)c3c2=O)O[C@H]1C [RSK Inhibitor, SL0101]
Zscore_1: 1.689
Zscore_2: −0.3488
Zscore_AVG: 0.67

COc1ccc(S(=O)(=O)N(CCO)c2ccccc2CN(C)C/C=C/c2ccc(Cl)cc2)cc1 [KN-93]
Zscore_1: −0.2896
Zscore_2: −2.889
Zscore_AVG: −1.589

O=c1cc(N2CCOCC2)oc2c(-c3ccccc3)cccc12 [LY 294002]
Zscore_1: −1.451
Zscore_2: 0.6923
Zscore_AVG: −0.3791
